Here are results for 1 molecule from US20240415878A1, “Compositions and Methods for Modulating Mitochondrial Function” (Board of Regents, The University of Texas System, priority 2021, published 2024).

Molecules are shown by their SMILES.

In the data set the test system is WT hepatocytes. Briefly: Confocal BODIPY/TMRE imaging of lipid droplets and mitochondrial potential in hepatocytes. Type of data set: cell-based, murine. The note with it: 50 μM, 48 hours. Here is the method:
CPACC treatment enhances adipose browning and lowers whole body weight. Given the potent mMg^2+ uptake inhibiting properties and low toxicity of CPACC, we hypothesized that CPACC could mimic Mrs2^−/− cellular phenotype. WT hepatocytes isolated from over 12 months old mice were treated with 50 μM CPACC for 48 hours. Control and CPACC treated hepatocytes were stained with BODIPY and TMRE for intracellular tracing using confocal imaging. […] Next it was determined if CPACC treatment affects the mitochondrial oxygen consumption rate. Freshly isolated WT hepatocytes were treated with 5-25 μM concentrations of CPACC for 16 hours before measurement of oxygen consumption rate. […] Since it was observed an enhancement of basal OCR in CPACC treated hepatocytes, the extracellular acidification rate was measured in control and CPACC treated hepatocytes and found it to be higher in the CPACC condition indicating higher glycolytic activity (FIG. 11G). […]
Confocal microscopic examination of cellular lipid localization and maintenance. […] Leica Application Suite X was used to quantify lipid-mitochondrial colocalization using line scan analysis followed by smooth curve fitting. […] The lipid droplet sizes and mitochondrial membrane potential were quantified using both Leica Application Suite X and ImageJ. All data was analyzed using GraphPad Prism v8.

For the molecule `[NH2][Co]([NH2])([NH2])([NH2])([NH2])[Cl]` [CPACC, chloropentaammine cobalt (III) chloride], the “effect on mitochondrial function (TMRE)” value is recorded as “no negative effect”. Moreover, the lipid droplet size result (hepatocytes from over 12 months old mice) is reported as “marked reduction of lipid droplet size”.
